Patent publication US9546158B2, “2,5-substituted pyrimidines” (Grünenthal GmbH, priority 2014, dated 2017)

What follows are compounds tested against T1, human PDE4B1 (Homo sapiens, UniProt Q07343) (assay: cAMP HTRF assay to determine the activity of hPDE4B1). Conditions: test substrate concentration of 1 μM, read-out: Inhibition of PDE4B, Inhibition in %.
T1 construct: host or cells: Sf9 cells
Format: biochemical
Description: cAMP HTRF® Assay to Determine the Activity of hPDE4B1
The inhibiting effect of the compounds on the enzyme activity of human PDE4B1 was measured by the quantification of 5′-adenosine monophosphate (5′-AMP), which is formed from 3′,5′-cyclic adenosine monophosphate (cAMP). Human recombinant enzyme, expressed in Sf9 cells, and the HTRF (homogeneous time-resolved fluorescence) detection method were used in the assay.
The test compound or water (control) was mixed with the human recombinant PDE4B1 enzyme (4.8 U) in a buffer consisting of 44.4 mM tris-HCl, 5.28 mM MgCl2, 2.64 mM DTT and 0.044% Tween 20 (pH 7.8). After adding the cAMP enzyme substrate (final concentration 40 nM), the mixture was incubated for 30 minutes at room temperature. Then a fluorescence acceptor (Dye2 marked with cAMP), a fluorescence donor (anti-cAMP antibody marked with a europium cryptate) and the non-specific phosphodiesterase inhibitor IBMX (3-isobutyl-1-methylxanthine; final concentration 1 mM) were added. After 60 minutes the fluorescence transfer, which correlates with the amount of remaining cAMP, was measured with a microplate reader (Rubystar, BMG) at λex=337 nm, λem=620 nm and λem=665 nm. The enzyme activity was calculated from the quotient formed from the measured signal at 665 nm and that at 620 nm. The result was expressed as the percentage inhibition of enzyme activity of the control (without PDE4 inhibitor). The enzyme was omitted for measurement of the basal control. IC50 values (IC50=concentration causing a half-maximal inhibition of control specific activity) were derived from dose response measurements with eight different concentrations (n=2; N=1-3).
Literature: N. Saldou et al., Comparison of recombinant human PDE4 isoforms: interaction with substrate and inhibitors, Cell. Signal. Vol. 10, No. 6, 427-440, 1998

T1 sequence (Q07343 whole entry): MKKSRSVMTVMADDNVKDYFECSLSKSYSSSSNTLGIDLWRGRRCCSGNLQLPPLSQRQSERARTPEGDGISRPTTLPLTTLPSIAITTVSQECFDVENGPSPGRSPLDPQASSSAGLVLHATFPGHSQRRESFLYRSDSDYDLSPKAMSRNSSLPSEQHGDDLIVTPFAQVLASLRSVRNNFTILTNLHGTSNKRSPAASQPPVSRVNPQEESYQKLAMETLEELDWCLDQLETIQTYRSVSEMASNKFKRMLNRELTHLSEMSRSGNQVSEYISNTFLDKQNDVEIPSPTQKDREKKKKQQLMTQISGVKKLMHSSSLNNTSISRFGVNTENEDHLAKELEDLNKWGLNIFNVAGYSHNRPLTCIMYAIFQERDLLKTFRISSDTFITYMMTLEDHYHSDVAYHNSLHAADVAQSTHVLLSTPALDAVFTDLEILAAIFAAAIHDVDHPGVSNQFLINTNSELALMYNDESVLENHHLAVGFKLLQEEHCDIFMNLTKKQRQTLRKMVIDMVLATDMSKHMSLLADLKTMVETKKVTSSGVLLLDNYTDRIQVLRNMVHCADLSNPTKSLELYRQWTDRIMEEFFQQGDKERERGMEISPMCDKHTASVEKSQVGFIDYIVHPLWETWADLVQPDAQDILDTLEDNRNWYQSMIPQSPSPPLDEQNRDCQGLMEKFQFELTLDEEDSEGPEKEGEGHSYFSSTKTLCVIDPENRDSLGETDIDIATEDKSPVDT

Compound	inhibition at 1 µM [%]
COc1ccc(F)c(-c2cnc(-n3nc(C(C)O)c4ccc(C(=O)N5CCOCC5)cc43)nc2)c1 (stereo not drawn) [Compound No. 21, (1-(5-(2-Fluoro-5-methoxyphenyl)pyrimidin-2-yl)-3-(1-hydroxyethyl)-1H-indazol-6-yl)(morpholino)methanone]	112
C[S+]([O-])c1nn(-c2ncc(-c3ccccc3)cn2)c2cc(C(=O)N3CCOCC3)ccc12 (stereo not drawn) [Compound No. 11, (3-(Methylsulfinyl)-1-(5-phenylpyrimidin-2-yl)-1H-indazol-6-yl)(morpholino)methanone]	115
C[S+]([O-])c1nn(-c2ncc(-c3ccccc3F)cn2)c2cc(C(=O)N3CCNCC3)ccc12 (stereo not drawn) [Compound No. 8, (1-(5-(2-Fluorophenyl)pyrimidin-2-yl)-3-(methylsulfinyl)-1H-indazol-6-yl)(piperazin-1-yl)methanone]	64
O=C(c1ccc2c(C3CC3)nn(-c3ncc(-c4ccccc4F)cn3)c2c1)N1CCOCC1 [Compound No. 4, (3-Cyclopropyl-1-(5-(2-fluorophenyl)pyrimidin-2-yl)-1H-indazol-6-yl)(morpholino)methanone]	106
Cc1cccc(-c2cnc(-n3nc(S(C)(=O)=O)c4ccc(C(=O)N5CCOCC5)cc43)nc2)c1 [Compound No. 26, (3-(Methylsulfonyl)-1-(5-(m-tolyl)pyrimidin-2-yl)-1H-indazol-6-yl)(morpholino)methanone]	91
C[S+]([O-])c1nn(-c2ncc(-c3ccccc3F)cn2)c2cc(C(=O)N3CCOCC3)ccc12 (stereo not drawn) [Compound No. 6, (1-(5-(2-Fluorophenyl)pyrimidin-2-yl)-3-(methylsulfinyl)-1H-indazol-6-yl)(morpholino)methanone]	97
CC(O)c1nn(-c2ncc(-c3cc(C#N)ccc3F)cn2)c2cc(C(=O)N3CCOCC3)ccc12 (stereo not drawn) [Compound No. 22, 4-Fluoro-3-(2-(3-(1-hydroxyethyl)-6-(morpholine-4-carbonyl)-1H-indazol-1-yl)pyrimidin-5-yl)benzonitrile]	112
CS(=O)(=O)c1nn(-c2ncc(-c3ccccc3F)cn2)c2cc(C(=O)N3CCOCC3)ccc12 [Compound No. 5, (1-(5-(2-Fluorophenyl)pyrimidin-2-yl)-3-(methylsulfonyl)-1H-indazol-6-yl)(morpholino)methanone]	96
CC(O)c1nn(-c2ncc(-c3ccccc3F)cn2)c2cc(C(=O)N3CCOCC3)ccc12 (stereo not drawn) [Compound No. 20, (1-(5-(2-Fluorophenyl)pyrimidin-2-yl)-3-(1-hydroxyethyl)-1H-indazol-6-yl)(morpholino)methanone]	102
C[S+]([O-])c1nn(-c2ncc(-c3ccccc3)cn2)c2cc(C(=O)N3CCNCC3)ccc12 (stereo not drawn) [Compound No. 9, (3-(Methylsulfinyl)-1-(5-phenylpyrimidin-2-yl)-1H-indazol-6-yl)(piperazin-1-yl)methanone]	46
Cc1cccc(-c2cnc(-n3nc(C(C)O)c4ccc(C(=O)N5CCOCC5)cc43)nc2)c1 (stereo not drawn) [Compound No. 18, (3-(1-Hydroxyethyl)-1-(5-(m-tolyl)pyrimidin-2-yl)-1H-indazol-6-yl)(morpholino)-methanone]	96
CS(=O)(=O)c1nn(-c2ncc(-c3ccccc3)cn2)c2cc(C(=O)N3CCOCC3)ccc12 [Compound No. 12, (3-(Methylsulfonyl)-1-(5-phenylpyrimidin-2-yl)-1H-indazol-6-yl)(morpholino)methanone]	62
CC(O)c1nn(-c2ncc(-c3ccccc3)cn2)c2cc(C(=O)N3CCOCC3)ccc12 (stereo not drawn) [Compound No. 19, (3-(1-Hydroxyethyl)-1-(5-phenylpyrimidin-2-yl)-1H-indazol-6-yl)(morpholino)methanone]	112
Cc1nn(-c2ncc(-c3ccccc3F)cn2)c2cc(C(=O)N3CCOCC3)ccc12 [Compound No. 1, (1-(5-(2-Fluorophenyl)pyrimidin-2-yl)-3-methyl-1H-indazol-6-yl)(morpholino)methanone]	99
NC(=O)c1nn(-c2ncc(-c3ccccc3F)cn2)c2cc(C(=O)N3CCOCC3)ccc12 [Compound No. 3, 1-(5-(2-Fluorophenyl)pyrimidin-2-yl)-6-(morpholine-4-carbonyl)-1H-indazole-3-carboxamide]	83
C[S+]([O-])c1nn(-c2ncc(-c3cc(C#N)ccc3F)cn2)c2cc(C(=O)N3CCOCC3)ccc12 (stereo not drawn) [Compound No. 25, 4-Fluoro-3-(2-(3-(methylsulfinyl)-6-(morpholine-4-carbonyl)-1H-indazol-1-yl)pyrimidin-5-yl)benzonitrile]	85
O=C(c1ccc2c(C(F)(F)F)nn(-c3ncc(-c4ccccc4F)cn3)c2c1)N1CCOCC1 [Compound No. 2, (1-(5-(2-Fluorophenyl)pyrimidin-2-yl)-3-(trifluoromethyl)-1H-indazol-6-yl)(morpholino)methanone]	102

Results, then the compound that gave them:

inhibition at 1 µM [%]	Compound
86	CS(=O)(=O)c1nn(-c2ncc(-c3cc(C#N)ccc3F)cn2)c2cc(C(=O)N3CCOCC3)ccc12 [Compound No. 28, 4-Fluoro-3-(2-(3-(methylsulfonyl)-6-(morpholine-4-carbonyl)-1H-indazol-1-yl)pyrimidin-5-yl)benzonitrile]
67	CCN(CC)C(=O)c1cc2c(cn1)c(C1CC1)nn2-c1ncc(-c2ccccc2F)cn1 [compound 39, 3-Cyclopropyl-N,N-diethyl-1-(5-(2-fluorophenyl)pyrimidin-2-yl)-1H-pyrazolo[4,3-c]pyridine-6-carboxamide]
81	O=C(NC1CC1)c1cc2c(cn1)c(C1CC1)nn2-c1ncc(-c2ccccc2F)cn1 [compound 36, N,3-Dicyclopropyl-1-(5-(2-fluorophenyl)pyrimidin-2-yl)-1H-pyrazolo[4,3-c]pyridine-6-carboxamide]
85	COc1ccc(F)c(-c2cnc(-n3nc(S(C)(=O)=O)c4ccc(C(=O)N5CCOCC5)cc43)nc2)c1 [Compound No. 27, (1-(5-(2-Fluoro-5-methoxyphenyl)pyrimidin-2-yl)-3-(methylsulfonyl)-1H-indazol-6-yl)(morpholino)methanone]
61	CC1COCCN1C(=O)c1cc2c(cn1)c(C1CC1)nn2-c1ncc(-c2ccccc2F)cn1 (stereo not drawn) [compound 44, (3-Cyclopropyl-1-(5-(2-fluorophenyl)pyrimidin-2-yl)-1H-pyrazolo[4,3-c]pyridin-6-yl)(3-methylmorpholino)methanone]
44	COCCCNC(=O)c1cc2c(cn1)c(C1CC1)nn2-c1ncc(-c2ccccc2F)cn1 [compound 43, 3-Cyclopropyl-1-(5-(2-fluorophenyl)pyrimidin-2-yl)-N-(3-methoxypropyl)-1H-pyrazolo[4,3-c]pyridine-6-carboxamide]
40	CN(CCO)C(=O)c1cc2c(cn1)c(C1CC1)nn2-c1ncc(-c2ccccc2F)cn1 [compound 40, 3-Cyclopropyl-1-(5-(2-fluorophenyl)pyrimidin-2-yl)-N-(2-hydroxyethyl)-N-methyl-1H-pyrazolo[4,3-c]pyridine-6-carboxamide]
67	O=C(NCCn1cncn1)c1cc2c(cn1)c(C1CC1)nn2-c1ncc(-c2ccccc2F)cn1 [compound 47, N-(2-(1H-1,2,4-Triazol-1-yl)ethyl)-3-cyclopropyl-1-(5-(2-fluorophenyl)pyrimidin-2-yl)-1H-pyrazolo[4,3-c]pyridine-6-carboxamide]
31	O=C(NCC1(O)CCC1)c1cc2c(cn1)c(C1CC1)nn2-c1ncc(-c2ccccc2F)cn1 [compound 46, 3-Cyclopropyl-1-(5-(2-fluorophenyl)pyrimidin-2-yl)-N-((1-hydroxycyclobutyl)methyl)-1H-pyrazolo[4,3-c]pyridine-6-carboxamide]
85	O=C(c1cc2c(cn1)c(C1CC1)nn2-c1ncc(-c2ccccc2F)cn1)N1CCCC1 [compound 38, (3-Cyclopropyl-1-(5-(2-fluorophenyl)pyrimidin-2-yl)-1H-pyrazolo[4,3-c]pyridin-6-yl)(pyrrolidin-1-yl)methanone]
27	O=C(NC1CCOCC1)c1cc2c(cn1)c(C1CC1)nn2-c1ncc(-c2ccccc2F)cn1 [compound 45, 3-Cyclopropyl-1-(5-(2-fluorophenyl)pyrimidin-2-yl)-N-(tetrahydro-2H-pyran-4-yl)-1H-pyrazolo[4,3-c]pyridine-6-carboxamide]
39	O=C(c1cc2c(cn1)c(C1CC1)nn2-c1ncc(-c2ccccc2F)cn1)N1CCCCC1 [compound 42, (3-Cyclopropyl-1-(5-(2-fluorophenyl)pyrimidin-2-yl)-1H-pyrazolo[4,3-c]pyridin-6-yl)(piperidin-1-yl)methanone]
59	O=C(c1cc2c(cn1)c(C1CC1)nn2-c1ncc(-c2ccccc2F)cn1)N1CCC1 [compound 35, Azetidin-1-yl(3-cyclopropyl-1-(5-(2-fluorophenyl)pyrimidin-2-yl)-1H-pyrazolo[4,3-c]pyridin-6-yl)methanone]
